# Details: not given
Compound,boiling point,melting point,log10 Koc (L/kg),log10 vapour pressure (mmHg),log10 biodegradation half-life (days),log10 Henry constant (atm·m³/mol),ready biodegradability,log10 Koa
FCCCCCCl,143 °C,–,–,–,–,–,–,–
SCCCCCCCCS,270 °C,–,–,–,–,–,–,–
Oc1ccc(O)c(-c2ccccc2)c1,–,102 °C,–,–,–,–,–,–
COc1cccc(Cl)n1,186 °C,–,–,–,–,–,–,–
O=C(NC(=O)c1c(F)cccc1F)Nc1ccc(Cl)cc1,–,239 °C,3.83,-9.05,–,–,–,–
O=C(O)CCC(=O)c1ccccc1,–,118 °C,–,–,–,–,–,–
Cc1onc(-c2ccccc2)c1C(=O)N[C@@H]1C(=O)N2[C@@H]1SC(C)(C)[C@@H]2C(=O)O,–,188 °C,–,–,–,–,–,–
OC(c1ccccc1)(c1ccccc1)c1ccccc1,380 °C,164 °C,–,–,–,–,–,–
CCCCCCCOC(=O)CCCC,245 °C,-46.4 °C,–,–,–,–,–,–
CCCCS(=O)(=O)O,–,-15.2 °C,–,–,–,–,–,–
CC1CCCCC1C (stereo unspecified),126 °C,–,–,1.2,1.26,–,–,–
CCCCCCl,108 °C,-99 °C,–,1.52,–,-1.62,–,–
CCC(C1CCCCC1)C1CCCCC1,284 °C,-23.5 °C,–,–,–,–,–,–
Clc1cc(Cl)c(Cl)c(-c2cc(Cl)cc(Cl)c2Cl)c1,–,–,6.48,–,–,–,–,–
CCCCCCCCCCCCOS(=O)(=O)[O-].[Na+],–,206 °C,–,–,–,–,–,–
C[Si](O)(c1ccccc1)c1ccccc1,–,167 °C,–,–,–,–,–,–
O=C1CCCCCCCCC1=O,–,40.5 °C,–,–,–,–,–,–
O=C(O)Cc1cccc(F)c1,–,43 °C,–,–,–,–,–,–
OCC(O)c1ccccc1 (stereo unspecified),273 °C,67.5 °C,–,–,–,–,–,–
S=C(Nc1cccc2ccccc12)Nc1cccc2ccccc12,–,208 °C,–,–,–,–,–,–
O=C1OC(=O)c2c1ccc(Cl)c2Cl,329 °C,121 °C,–,–,–,–,–,–
N#CCON=C(C#N)c1ccccc1,–,55 °C,–,-0.457,–,–,–,–
COc1cccc(Cl)c1,194 °C,–,–,–,–,–,–,–
COc1c(OC)c2occc2c2oc(=O)ccc12,–,119 °C,–,–,–,–,–,–
Cc1ccc(C)c(C)c1,169 °C,-43.8 °C,–,0.322,0.602,-2.21,not readily biodegradable,–
CCOC(=O)CCCC(=O)OCC,236 °C,-24.1 °C,–,-0.793,–,–,–,–
CCCCCCCC/C=C\CCCCCCCC(=O)OCC,–,-13.1 °C,–,–,–,–,–,–

Compound,boiling point,melting point,log10 Koc (L/kg),log10 vapour pressure (mmHg),log10 biodegradation half-life (days),log10 Henry constant (atm·m³/mol),ready biodegradability,log10 Koa
COc1cc(Cl)c(Cl)cc1O,–,–,–,-2.35,–,–,–,–
CCCCCCCCCCCCCCCCCCCCCCCCCCCCCCCCCCCCCCCC,–,82 °C,–,–,–,–,readily biodegradable,–
COC(=O)C1=CCCN(C)C1,209 °C,–,–,-1.1,–,–,–,–
OC[C@H]1O[C@@H](n2cnc3c2N=CNC[C@H]3O)C[C@@H]1O,–,220 °C,–,–,–,–,–,–
CN(C)CN(C)C,83 °C,–,–,–,–,–,–,–
CC1CCCCC1O (stereo unspecified),164 °C,–,–,–,–,-5.12,–,–
Clc1ccc2c(c1)Oc1cc(Cl)c(Cl)cc1O2,–,162 °C,–,-7.05,–,–,–,9.14
CC(C)(CC(=O)O)CC(=O)O,–,104 °C,–,–,–,–,–,–
CCCC(C)C=O (stereo unspecified),117 °C,–,–,–,–,–,–,–
c1ccc2c(c1)[nH]c1ccccc12,355 °C,246 °C,3.4,-6.12,–,-6.94,not readily biodegradable,–
O=[N+]([O-])c1cccc(C(F)(F)F)c1,203 °C,-2.4 °C,–,-0.587,–,–,–,–
CCc1cnccn1,152 °C,–,–,–,–,-5.61,–,–
CCCCCCCC(N)=O,239 °C,108 °C,–,–,–,–,–,–
CC1(C)CCCCC1=O,172 °C,-20.5 °C,–,–,–,–,–,–
Cc1ccc(NC2=NCCN2)c(Cl)c1,–,149 °C,–,–,–,–,–,–
COC(=O)c1ccccc1[N+](=O)[O-],275 °C,-13 °C,–,–,–,–,–,–
Cc1cn(C)c2ccccc12,258 °C,142 °C,–,–,–,–,–,–
O=CC(=O)O,–,–,–,–,–,–,readily biodegradable,–
CC(=O)Oc1ccc(C(c2ccc(OC(C)=O)cc2)c2ccccn2)cc1,–,134 °C,–,–,–,–,–,–
O=S(=O)(O)c1ccc2c(O)cc(S(=O)(=O)O)cc2c1,–,–,–,–,–,–,readily biodegradable,–
O=C1C(=O)c2cccc3cccc1c23,–,261 °C,–,–,–,–,–,–
S=C=S,46 °C,-112 °C,2.34,2.56,–,-1.84,–,2.28
OCCC1CCCC1,183 °C,–,–,–,–,–,–,–
COC1CCCCC1,133 °C,-74.4 °C,–,–,–,–,–,–
CNC1(c2ccccc2Cl)CCCCC1=O (stereo unspecified),–,92.5 °C,–,–,–,–,–,–
Nc1cccc(Br)c1,251 °C,18.5 °C,–,–,–,–,–,–

# Same assay, conditions: fish
Compound,log10 biotransformation half-life (days),log10 BCF
Clc1cc(Cl)c(Cl)c(-c2cc(Cl)c(Cl)c(Cl)c2Cl)c1,2.51,–
O=C1c2ccccc2C(=O)c2c(Cl)cccc21,-0.23,2.3
ClC1=C(Cl)C2(Cl)C3C(Cl)C=CC3C1(Cl)C2(Cl)Cl (stereo unspecified),1.45,3.94
CC(Cl)(Cl)C(=O)[O][Na],–,0.86
c1ccc(COCc2ccccc2)cc1,0.63,2.43
O=C(NC(=O)c1c(F)cccc1F)Nc1ccc(Cl)cc1,–,2.2
CCOP(=S)(OCC)Oc1cc(-c2ccccc2)on1,1.05,2.61
CCOP(=O)(OCC)Oc1cc(C)nc(C(C)C)n1,–,-0.35
Cc1ccc(C)c(C)c1,-0.31,2.08
COc1cc(Cl)c(Cl)cc1O,-0.15,2.03
c1ccc2c(c1)[nH]c1ccccc12,0.06,2.23
S=C=S,–,1.29

# Reference: the OPERA property sets (Mansouri et al. 2018)
